Tested on: P. falciparum stage V gametocytes
Assay: microbe, parasite or virus in culture
Parameters: BacTiter-Glo ATP luminescence viability of purified stage V gametocytes in 384-well plates, per cent inhibition versus DMSO
Settings: 48 h, 5 µM; inhibitor

Structure (SMILES)	% Inhibition
CN(C)CCN1CCN(CCCN2c3ccccc3Sc3ccc(C(F)(F)F)cc32)CC1 [TCMDC-142257]	92.65%

Same assay, conditions: Plasmodium falciparum, 48 h, read-out: % Inhibition

Structure (SMILES)	inhibition at 5 µM
COc1ccc(C=NNc2ccnc3cc(F)c(C)cc23)c2ccccc12 [TCMDC-142235]	-8.9%
COc1ccc2c(NN=Cc3c(OC)ccc4ccccc34)cc(C)nc2c1 [TCMDC-142236]	103%
COc1ccc2ccccc2c1C=NNc1ccnc2ccc(F)cc12 [TCMDC-142237]	-11.1%
COc1ccc2ccccc2c1C=NNc1cc(C)nc2cc(C(F)(F)F)ccc12 [TCMDC-142238]	-35%
COc1ccc2c(NN=C(C)c3ccccn3)cc(C)nc2c1 [TCMDC-142239]	103%
CCOC(=O)c1cnc2c(OC)cc(OC)c(Cl)c2c1Nc1ccccc1 [TCMDC-142240]	44.8%
CCOC(=O)c1cnc2c(OC)cc(OC)c(Cl)c2c1Nc1cccc(C)c1 [TCMDC-142241]	-99.9%
CCOC(=O)c1cnc2c(OC)cc(OC)c(Cl)c2c1Nc1cccc(C)c1C [TCMDC-142242]	64.1%
CCCCc1ccc2[nH]cc(C(=O)OCC)c(=O)c2c1 [TCMDC-142243]	33.5%
CN(C(=O)c1ccc(Br)cc1)c1ccccc1[N+](=O)[O-] [TCMDC-142245]	-8%
CCCCCCc1cc(OC)c(OC)cc1C(C)Nc1ccnc2cc(Cl)ccc12 (centres unmarked) [TCMDC-142247]	-55.2%
CCCCCCN(CCCCCC)CC(O)c1c(OC)ccc2ccccc12 (centres unmarked) [TCMDC-142248]	-34.9%
Cc1ccccc1C1=CCN(CCCN2c3ccccc3Sc3ccc(Cl)cc32)CC1 [TCMDC-142249]	53.4%
COc1ccccc1-c1nc2nc(N)nc(N)c2nc1-c1ccccc1OC [TCMDC-142250]	16.7%
O=C(NC1c2ccccc2Oc2ccccc21)c1ccccc1O [TCMDC-142251]	3.63%
CCCN(CCC)CCCOc1ccc(C(=O)c2c(-c3ccc(OCCCN(CCC)CCC)cc3)oc3ccc(Cl)cc23)cc1 [TCMDC-142256]	105%
Cc1ccc(C2(O)CC3CCC(C2)N3C)cc1 (centres unmarked) [TCMDC-142260]	10.6%
CC(C)OC(=O)c1ccccc1S(N)(=O)=O [TCMDC-142262]	-12.6%
CCN(CC)CCCC(C)Nc1c(-c2ccc(Br)cc2)cnc2ccccc12 (centres unmarked) [TCMDC-142263]	26%
CCN(CC)CCCC(C)Nc1c(-c2ccc(C)cc2)cnc2ccccc12 (centres unmarked) [TCMDC-142264]	25.6%
CCN(CC)CCCC(C)Nc1c(-c2ccc(OC)cc2)cnc2ccccc12 (centres unmarked) [TCMDC-142265]	36.6%
Cc1ccc(O)cc1C[C@@H]1C(=O)CC[C@@]2(C)[C@H]1CC[C@]2(C)O [TCMDC-142266]	-40.3%
c1ccc2c3c(ccc2c1)Sc1c(ccc2ccccc12)N3 [TCMDC-142267]	-92.1%
CCCCN(CCCC)CC(O)c1cc(-c2ccc(Cl)cc2)nc2c(Cl)cc(Cl)cc12 (centres unmarked) [TCMDC-142268]	-20.8%
Fc1ccc(C2N=C(SCCSC3=NC(c4ccc(F)cc4)C(c4ccc(F)cc4)N3)NC2c2ccc(F)cc2)cc1 (centres unmarked) [TCMDC-142269]	-7.65%
C=CCN1Cc2c(O)cccc2C(c2ccc(O)c(O)c2)C1 (centres unmarked) [TCMDC-142270]	-127%

Structure (SMILES)	inhibition at 5 µM
COc1ccc(C2CNCc3c2cc(OC)c(OC)c3Cl)cc1 (centres unmarked) [TCMDC-142271]	22.9%
COc1cc2c(cc1OC)C(c1ccc(Br)cc1)CN(C)CC2 (centres unmarked) [TCMDC-142272]	20.3%
COc1ccc(CSC2CCCCC23NC(=S)NC3=S)cc1 (centres unmarked) [TCMDC-142273]	5.66%
CCCC(C(=O)OCCNC)(c1ccccc1)c1ccccc1 [TCMDC-142275]	48.4%
CC(C)NCc1cc(Nc2ccnc3cc(Cl)ccc23)ccc1O [TCMDC-142277]	-61.6%
COc1ccc2nc3cc(Cl)ccc3c(Nc3ccc(O)c(CNC(C)C)c3)c2c1 [TCMDC-142278]	57.9%
CCCCN(CCCC)Cc1cc(Nc2ccnc3cc(Cl)ccc23)ccc1O [TCMDC-142279]	-8.89%
COc1ccc(C=Cc2cc(N)c3ccccc3n2)cc1 [TCMDC-142280]	97.9%
Nc1cc(-c2ccc3ccccc3c2)nc2ccccc12 [TCMDC-142281]	1.22%
Nc1c2c(nc3ccc(Oc4ccc(Cl)cc4)cc13)CCCC2 [TCMDC-142282]	92%
CCN(CC)Cc1cc(NC(=O)c2ccccc2O)ccc1Oc1ccc(Cl)cc1 [TCMDC-142283]	-6.19%
Nc1c2c(nc3ccc(C(=O)Nc4ccccc4)cc13)CCCC2 [TCMDC-142284]	39.7%
COc1ccc(C=Cc2cc(N)c3ccccc3n2)cc1Br [TCMDC-142285]	39.4%
Nc1c2c(nc3ccc(Oc4ccc(Br)cc4Br)cc13)CCCC2 [TCMDC-142286]	91.6%
Nc1c2c(nc3ccc(C(=O)Nc4ccc(Br)cc4)cc13)CCCC2 [TCMDC-142287]	62.2%
Nc1c2c(nc3ccccc13)C(=Cc1ccc(O)cc1)CCC2 [TCMDC-142288]	-4.93%
CC1=C(C(=O)OCCOCc2ccccc2)C(c2ccccc2C(F)(F)F)C(C(=O)OCCOCc2ccccc2)=C(C)N1 [TCMDC-142290]	61.1%
Nc1c2c(nc3ccc(NC(=O)c4ccc([N+](=O)[O-])cc4)cc13)CCCC2 [TCMDC-142291]	60.6%
Nc1c2c(nc3ccc(C(=O)Nc4cc(I)c(O)c(I)c4)cc13)CCCC2 [TCMDC-142292]	-1.08%
CC(C)(C)c1cc([N+](=O)[O-])cc(C(=O)Nc2ccccc2C(F)(F)F)c1O [TCMDC-142293]	-4.47%
CCOc1cc(NCCSCc2nc[nH]c2C)nc2ccccc12 [TCMDC-142294]	26.1%
CON(CCCN(C)C)C(=N)N [TCMDC-142297]	12.5%
CC(C)(C)NCC(O)COc1ccc(Cl)cc1C1=NNC(=O)CC1 (centres unmarked) [TCMDC-142298]	8.53%
CC(C)c1cc(Oc2c(I)cc(CCN=C(N)N)cc2I)ccc1O [TCMDC-142299]	38.1%
CC(C)c1cc(Oc2c(I)cc(CCNCc3ccccc3)cc2I)ccc1O [TCMDC-142300]	-73.5%
Cc1[nH]cnc1CSCCNC(N)=NCCCCCCCCN=C(N)NCCSCc1nc[nH]c1C [TCMDC-142301]	-5.19%

Structure (SMILES)	inhibition at 5 µM
Cc1[nH]cnc1CSCCN/C(=N\C#N)NCCCCCCCCN/C(=N/C#N)NCCSCc1nc[nH]c1C [TCMDC-142302]	48.1%
Cc1ccc(Cc2cnc(NCCSCc3ccc(CN4CCOCC4)o3)[nH]c2=O)cn1 [TCMDC-142303]	-5.99%
Cc1ccc(Cc2cnc(NCCSCc3ccc(CN(C)C)s3)[nH]c2=O)cn1 [TCMDC-142304]	-3.6%
CN=C(NO)NCCN(C)C [TCMDC-142305]	-1.82%
Oc1ccc(Cc2cc(Oc3c(I)cc(CCc4ncc[nH]4)cc3I)ccc2O)cc1 [TCMDC-142306]	59.2%
CC(C)c1cc(Oc2c(I)cc(CCCc3ncc[nH]3)cc2I)ccc1O [TCMDC-142307]	-127%
Oc1ccc(CCCc2cc(Oc3c(I)cc(CCc4ncc[nH]4)cc3I)ccc2O)cc1 [TCMDC-142308]	-67%
Cc1cc(Br)cnc1CCCCN=C1NC(=O)CN1C [TCMDC-142309]	5.26%
O=c1c(NCCCN(Cc2ccc(F)cc2)c2ccccn2)c(NCc2ccncc2)c1=O [TCMDC-142310]	91.6%
O=c1c(NCCCN(Cc2ccc(F)cc2)c2ccccn2)c(NCc2cccnc2)c1=O [TCMDC-142311]	48%
[O-][s+]1nc(NCCCN(Cc2cccs2)c2ccccn2)c(NCc2ccccc2)n1 (centres unmarked) [TCMDC-142312]	5.1%
O=C(OCc1ccccn1)c1nc2ccccc2[nH]1 [TCMDC-142313]	43.6%
c1ccc(COc2ccnc(NCCCOc3cccc(CN4CCCCC4)c3)c2)cc1 [TCMDC-142314]	40%
c1cc(CN2CCCCC2)cc(OCCCNc2ccnc3ccccc23)c1 [TCMDC-142315]	42%
Cc1cc(Br)cnc1CCCCNc1cc(=O)c2ccccc2[nH]1 [TCMDC-142316]	-5.57%
CCCCN(CCCC)C(=O)CC(O)c1cc2c(Cl)cc(Cl)cc2c2cc(C(F)(F)F)ccc12 (centres unmarked) [TCMDC-142317]	14.8%
CCCCN(CCCC)CCC(O)C(=Cc1ccc(Cl)cc1Cl)c1ccc(C(F)(F)F)cc1N (centres unmarked) [TCMDC-142318]	-17.1%
Cc1ccccc1Nc1nc(NCc2ccccc2)nc2ccccc12 [TCMDC-142319]	98.9%
COc1cccc2c(Oc3ccccc3C)ccnc12 [TCMDC-142320]	-32.5%
COc1cccc2c(Nc3ccccc3C)nc(Nc3ccccc3C)nc12 [TCMDC-142321]	28.2%
Cc1ccccc1Nc1nc(NCCc2ccccc2)nc2ccccc12 [TCMDC-142322]	101%
CCCC(=O)c1cnc2cc(O)ccc2c1Nc1ccccc1C [TCMDC-142323]	-12.6%
Cc1ccccc1Nc1nc(Nc2ccccc2)c2ccccc2n1 [TCMDC-142324]	28.6%
CNc1nc(Nc2ccccc2C)nc2ccccc12 [TCMDC-142325]	50.8%

Same assay, conditions: Plasmodium falciparum, 48 h; read-out: % Inhibition

Structure (SMILES)	inhibition at 5 µM
CNCCc1c(O)ccc2ccccc12 [TCMDC-142244]	-11.4%
CCCCCCC(C)(C)c1cc(O)c2c3c(c(=O)oc2c1)CCN(Cc1ccccc1)C3 [TCMDC-142252]	-7.75%
CCCCCCC(C)(C)c1cc(O)c2c(c1)OC(C)(C)c1ccncc1-2 [TCMDC-142253]	30.7%
CCCCCCC(C)c1cc(O)c2c(c1)OC(C)(C)c1ccncc1-2 (centres unmarked) [TCMDC-142254]	56.1%
CCCCCc1cc(O)c2c(c1)OC(C)(C)c1ccncc1-2 [TCMDC-142255]	-24.7%
CCCCCCC(CC)c1cc(O)c2c(c1)OC(C)(C)c1ccncc1-2 (centres unmarked) [TCMDC-142258]	-39.1%
CCCCCCCc1cc(O)c2c(c1)OC(C)(C)c1ccncc1-2 [TCMDC-142259]	6.2%
CC1=CC(=O)[C@@H](O)[C@]2(C)[C@H]3[C@@]4(O)OC[C@@]35[C@@H](C[C@@H]12)OC(=O)C[C@H]5[C@@H](C)[C@H]4O [TCMDC-142261]	50.1%
CCOC(=O)CCCN1C(=O)CN=C(c2ccccc2)c2cc(Cl)ccc21 [TCMDC-142274]	-8.73%

From PMC4552634, “A New Set of Chemical Starting Points with Plasmodium falciparum Transmission-Blocking Potential for Antimalarial Drug Discovery” (PLoS ONE, 2015)
